{
  "source": "the NIST ThermoML archive (doi:10.1016/j.jct.2005.04.010)",
  "key": {"[1]": {"conditions": "101.33 kPa, Liquid"}, "[2]": {"experiment": "activity coefficient (dimensionless); of the first substance listed, at infinite dilution; xn = mol fraction of the nth substance listed", "conditions": "Liquid, x1 = 0"}},
  "note": "Numbers after ± are expanded uncertainties.",
  "data": [
    {"smiles": "CCCCCCCCn1cc[n+](C)c1.O=S(=O)([N-]S(=O)(=O)C(F)(F)F)C(F)(F)F", "values": [
      {"measurement": "mass density", "setting": "[1]; 298.15 K", "result": "1325 ± 5", "unit": "kg/m3"},
      {"measurement": "mass density", "setting": "[1]; 303.15 K", "result": "1320 ± 5", "unit": "kg/m3"},
      {"measurement": "mass density", "setting": "[1]; 308.15 K", "result": "1316 ± 5", "unit": "kg/m3"},
      {"measurement": "mass density", "setting": "[1]; 313.15 K", "result": "1311 ± 5", "unit": "kg/m3"},
      {"measurement": "mass density", "setting": "[1]; 318.15 K", "result": "1307 ± 5", "unit": "kg/m3"},
      {"measurement": "mass density", "setting": "[1]; 323.15 K", "result": "1303 ± 5", "unit": "kg/m3"},
      {"measurement": "mass density", "setting": "[1]; 328.15 K", "result": "1298 ± 5", "unit": "kg/m3"},
      {"measurement": "mass density", "setting": "[1]; 333.15 K", "result": "1294 ± 5", "unit": "kg/m3"},
      {"measurement": "mass density", "setting": "[1]; 338.15 K", "result": "1289 ± 5", "unit": "kg/m3"},
      {"measurement": "mass density", "setting": "[1]; 343.15 K", "result": "1285 ± 5", "unit": "kg/m3"}
    ]},
    {"smiles": "CCCCCC[n+]1ccn(C)c1.O=S(=O)([N-]S(=O)(=O)C(F)(F)F)C(F)(F)F", "values": [
      {"measurement": "mass density", "setting": "[1]; 293.15 K", "result": "1374 ± 5", "unit": "kg/m3"},
      {"measurement": "mass density", "setting": "[1]; 298.15 K", "result": "1370 ± 5", "unit": "kg/m3"},
      {"measurement": "mass density", "setting": "[1]; 303.15 K", "result": "1365 ± 5", "unit": "kg/m3"},
      {"measurement": "mass density", "setting": "[1]; 308.15 K", "result": "1361 ± 5", "unit": "kg/m3"},
      {"measurement": "mass density", "setting": "[1]; 313.15 K", "result": "1356 ± 5", "unit": "kg/m3"},
      {"measurement": "mass density", "setting": "[1]; 318.15 K", "result": "1352 ± 5", "unit": "kg/m3"},
      {"measurement": "mass density", "setting": "[1]; 323.15 K", "result": "1347 ± 5", "unit": "kg/m3"},
      {"measurement": "mass density", "setting": "[1]; 328.15 K", "result": "1343 ± 5", "unit": "kg/m3"},
      {"measurement": "mass density", "setting": "[1]; 333.15 K", "result": "1339 ± 5", "unit": "kg/m3"},
      {"measurement": "mass density", "setting": "[1]; 338.15 K", "result": "1334 ± 5", "unit": "kg/m3"},
      {"measurement": "mass density", "setting": "[1]; 343.15 K", "result": "1330 ± 5", "unit": "kg/m3"},
      {"measurement": "mass density", "setting": "[1]; 348.15 K", "result": "1325 ± 5", "unit": "kg/m3"},
      {"measurement": "mass density", "setting": "[1]; 353.15 K", "result": "1320 ± 5", "unit": "kg/m3"},
      {"measurement": "mass density", "setting": "[1]; 358.15 K", "result": "1315 ± 5", "unit": "kg/m3"}
    ]},
    {"smiles": "CCCO", "note": "[propan-1-ol] + CCCCCC[n+]1ccn(C)c1.O=S(=O)([N-]S(=O)(=O)C(F)(F)F)C(F)(F)F", "values": [
      {"measurement": "activity coefficient", "setting": "[2]; 303.15 K, Chromatography", "result": "1.9 ± 0.08"},
      {"measurement": "activity coefficient", "setting": "[2]; 313.15 K, Chromatography", "result": "1.71 ± 0.07"},
      {"measurement": "activity coefficient", "setting": "[2]; 323.15 K, Chromatography", "result": "1.57 ± 0.06"},
      {"measurement": "activity coefficient", "setting": "[2]; 333.15 K, Chromatography", "result": "1.45 ± 0.05"}
    ]},
    {"smiles": "CC(C)O", "note": "[propan-2-ol] + CCCCCC[n+]1ccn(C)c1.O=S(=O)([N-]S(=O)(=O)C(F)(F)F)C(F)(F)F", "values": [
      {"measurement": "activity coefficient", "setting": "[2]; 303.15 K, Chromatography", "result": "1.71 ± 0.07"},
      {"measurement": "activity coefficient", "setting": "[2]; 303.15 K, dilutor", "result": "1.72 ± 0.09"},
      {"measurement": "activity coefficient", "setting": "[2]; 323.15 K, Chromatography", "result": "1.44 ± 0.05"},
      {"measurement": "activity coefficient", "setting": "[2]; 323.15 K, dilutor", "result": "1.37 ± 0.07"},
      {"measurement": "activity coefficient", "setting": "[2]; 333.15 K, Chromatography", "result": "1.33 ± 0.05"},
      {"measurement": "activity coefficient", "setting": "[2]; 333.15 K, dilutor", "result": "1.23 ± 0.06"}
    ]},
    {"smiles": "CC(C)O", "note": "[propan-2-ol] + CCCC[N+]1(C)CCCC1.O=S(=O)([N-]S(=O)(=O)C(F)(F)F)C(F)(F)F", "values": [
      {"measurement": "activity coefficient", "setting": "[2]; 303.15 K, dilutor", "result": "2.11 ± 0.11"},
      {"measurement": "activity coefficient", "setting": "[2]; 313.15 K, dilutor", "result": "1.92 ± 0.1"},
      {"measurement": "activity coefficient", "setting": "[2]; 323.15 K, dilutor", "result": "1.77 ± 0.09"},
      {"measurement": "activity coefficient", "setting": "[2]; 333.15 K, dilutor", "result": "1.63 ± 0.08"}
    ]},
    {"smiles": "C1CCOC1", "note": "[tetrahydrofuran] + CCCCCC[n+]1ccn(C)c1.O=S(=O)([N-]S(=O)(=O)C(F)(F)F)C(F)(F)F", "values": [
      {"measurement": "activity coefficient", "setting": "[2]; 303.15 K, Chromatography", "result": "0.49 ± 0.03"},
      {"measurement": "activity coefficient", "setting": "[2]; 313.15 K, Chromatography", "result": "0.51 ± 0.03"},
      {"measurement": "activity coefficient", "setting": "[2]; 323.15 K, Chromatography", "result": "0.53 ± 0.03"},
      {"measurement": "activity coefficient", "setting": "[2]; 333.15 K, Chromatography", "result": "0.55 ± 0.03"}
    ]},
    {"smiles": "Cc1ccccc1", "note": "[toluene] + CCCCCCCCn1cc[n+](C)c1.O=S(=O)([N-]S(=O)(=O)C(F)(F)F)C(F)(F)F", "values": [
      {"measurement": "activity coefficient", "setting": "[2]; 303.15 K, Chromatography", "result": "0.82 ± 0.03"},
      {"measurement": "activity coefficient", "setting": "[2]; 313.15 K, Chromatography", "result": "0.83 ± 0.03"},
      {"measurement": "activity coefficient", "setting": "[2]; 323.15 K, Chromatography", "result": "0.85 ± 0.03"},
      {"measurement": "activity coefficient", "setting": "[2]; 333.15 K, Chromatography", "result": "0.85 ± 0.03"}
    ]},
    {"smiles": "Cc1ccccc1", "note": "[toluene] + CCCCCC[n+]1ccn(C)c1.O=S(=O)([N-]S(=O)(=O)C(F)(F)F)C(F)(F)F", "values": [
      {"measurement": "activity coefficient", "setting": "[2]; 303.15 K, Chromatography", "result": "1.01 ± 0.03"},
      {"measurement": "activity coefficient", "setting": "[2]; 313.15 K, Chromatography", "result": "1.03 ± 0.03"},
      {"measurement": "activity coefficient", "setting": "[2]; 323.15 K, Chromatography", "result": "1.05 ± 0.03"},
      {"measurement": "activity coefficient", "setting": "[2]; 333.15 K, Chromatography", "result": "1.08 ± 0.03"}
    ]},
    {"smiles": "O", "note": "[water] + CCCCCCCCn1cc[n+](C)c1.O=S(=O)([N-]S(=O)(=O)C(F)(F)F)C(F)(F)F", "values": [
      {"measurement": "activity coefficient", "setting": "[2]; 303.15 K, Chromatography", "result": "3.89 ± 0.18"},
      {"measurement": "activity coefficient", "setting": "[2]; 303.15 K, dilutor", "result": "3.76 ± 0.19"},
      {"measurement": "activity coefficient", "setting": "[2]; 313.15 K, Chromatography", "result": "3.52 ± 0.16"},
      {"measurement": "activity coefficient", "setting": "[2]; 313.15 K, dilutor", "result": "3.51 ± 0.18"},
      {"measurement": "activity coefficient", "setting": "[2]; 323.15 K, Chromatography", "result": "3.03 ± 0.14"},
      {"measurement": "activity coefficient", "setting": "[2]; 323.15 K, dilutor", "result": "3.29 ± 0.16"},
      {"measurement": "activity coefficient", "setting": "[2]; 333.15 K, Chromatography", "result": "2.58 ± 0.12"}
    ]}
  ]
}
